From the supplement of paper PMC10627819

Tests used:
B. subtilis 168 [1] = assay: fitness (endpoint OD595 vs no drug) (fraction); higher = more growth
Summary of the method: (§1)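 In 384-well plates at 37 °C, cultures began at OD595 0.01 in 30 µl, with 55 µl used for S. pneumoniae. OD595 readings every 30 min for 14 h were corrected by the first reading. Fitness divides the stationary-phase transition optical density by the robust mean of no-drug control wells. The result is capped at 1.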

S. pneumoniae D39V [2] = assay: as above
Summary of the method: as §1

B. subtilis 168 [3] = assay: Bliss interaction score (quartile over a dose matrix) (fitness difference); higher = more antagonism (negative = synergy)
Summary of the method: (§2)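 At entry into stationary phase, OD595 was recorded and divided by the robust mean of the no-drug wells on that plate, with any value above 1 set to 1. This gives the fitness measure used throughout. Single-drug fitness was inferred from combination data, and the Bliss score, observed minus product-expected fitness, is shown as quartiles across technical, biological and donor/recipient replicates.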

S. aureus Newman = assay: as above
Summary of the method: as §2

S. aureus DSM 20231 = assay: as above
Summary of the method: as §2

S. pneumoniae D39V [4] = assay: as above
Summary of the method: as §2
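For Bliss interaction score (quartile over a dose matrix) in this document: first quartile when negative (synergy) and third quartile when positive (antagonism).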

C[C@@H]1O[C@@H]1P(=O)(O)O [Fosfomycin] + C[C@H]1COc2c(N3CCN(C)CC3)c(F)cc3c(=O)c(C(=O)O)cn1c23 [Levofloxacin]
fitness, B. subtilis 168 [1], one replicate
Settings | first compound 1.562 µg/mL | first compound 3.124 µg/mL | first compound 6.248 µg/mL
partner 0.001 µg/mL | 0.864 | 0.738 | 0.599
partner 0.0078 µg/mL | 0.75 | 0.643 | 0.492

Settings | fitness
B. subtilis 168 [1], first compound 1.562 µg/mL, partner 0.002 µg/mL | 0.717
B. subtilis 168 [1], first compound 1.562 µg/mL, partner 0.0039 µg/mL | 0.724
B. subtilis 168 [1], first compound 1.562 µg/mL, partner 0.0312 µg/mL | 0.0432
B. subtilis 168 [1], first compound 1.562 µg/mL, partner 0.0625 µg/mL | 0.0523
B. subtilis 168 [1], first compound 1.562 µg/mL, partner 0.125 µg/mL | 0.0479
B. subtilis 168 [1], first compound 3.124 µg/mL, partner 0.002 µg/mL | 0.629
B. subtilis 168 [1], first compound 3.124 µg/mL, partner 0.0039 µg/mL | 0.617
B. subtilis 168 [1], first compound 3.124 µg/mL, partner 0.0312 µg/mL | 0.0352
B. subtilis 168 [1], first compound 3.124 µg/mL, partner 0.0625 µg/mL | 0.0394
B. subtilis 168 [1], first compound 3.124 µg/mL, partner 0.125 µg/mL | 0.0439
B. subtilis 168 [1], first compound 6.248 µg/mL, partner 0.002 µg/mL | 0.525
B. subtilis 168 [1], first compound 6.248 µg/mL, partner 0.0039 µg/mL | 0.516
B. subtilis 168 [1], first compound 6.248 µg/mL, partner 0.0312 µg/mL | 0.0328
B. subtilis 168 [1], first compound 6.248 µg/mL, partner 0.0625 µg/mL | 0.0306
B. subtilis 168 [1], first compound 6.248 µg/mL, partner 0.125 µg/mL | 0.023
S. pneumoniae D39V [2], first compound 1.25 µg/mL, partner 0.1725 µg/mL | 0.953
S. pneumoniae D39V [2], first compound 1.25 µg/mL, partner 0.2 µg/mL | 0.936
S. pneumoniae D39V [2], first compound 1.25 µg/mL, partner 0.345 µg/mL | 0.86
S. pneumoniae D39V [2], first compound 1.25 µg/mL, partner 0.4 µg/mL | 0.857
S. pneumoniae D39V [2], first compound 1.25 µg/mL, partner 0.69 µg/mL | 0.633
S. pneumoniae D39V [2], first compound 2.5 µg/mL, partner 0.1725 µg/mL | 0.88
S. pneumoniae D39V [2], first compound 2.5 µg/mL, partner 0.2 µg/mL | 0.892
S. pneumoniae D39V [2], first compound 2.5 µg/mL, partner 0.345 µg/mL | 0.735
S. pneumoniae D39V [2], first compound 2.5 µg/mL, partner 0.4 µg/mL | 0.823
S. pneumoniae D39V [2], first compound 2.5 µg/mL, partner 0.69 µg/mL | 0.574
S. pneumoniae D39V [2], first compound 5 µg/mL, partner 0.1725 µg/mL | 0.821
S. pneumoniae D39V [2], first compound 5 µg/mL, partner 0.2 µg/mL | 0.794
S. pneumoniae D39V [2], first compound 5 µg/mL, partner 0.345 µg/mL | 0.728
S. pneumoniae D39V [2], first compound 5 µg/mL, partner 0.4 µg/mL | 0.697
S. pneumoniae D39V [2], first compound 5 µg/mL, partner 0.69 µg/mL | 0.536
S. pneumoniae D39V [2], first compound 5 µg/mL, partner 0.8 µg/mL | 0.341

Settings | Bliss interaction score
B. subtilis 168 [3] | -0.0453
S. aureus DSM 20231 | 0.0688
S. aureus Newman | 0.0484
S. pneumoniae D39V [4] | 0.0613

O=C(O)c1cn(C2CC2)c2cc(N3CCNCC3)c(F)cc2c1=O [Ciprofloxacin] + C[C@H]1COc2c(N3CCN(C)CC3)c(F)cc3c(=O)c(C(=O)O)cn1c23 [Levofloxacin]
one replicate
Settings | fitness
B. subtilis 168 [1], first compound 0.0098 µg/mL, partner 0.001 µg/mL | 0.863
B. subtilis 168 [1], first compound 0.0098 µg/mL, partner 0.0078 µg/mL | 0.934
B. subtilis 168 [1], first compound 0.0195 µg/mL, partner 0.001 µg/mL | 0.829
B. subtilis 168 [1], first compound 0.0195 µg/mL, partner 0.0078 µg/mL | 0.683
B. subtilis 168 [1], first compound 0.039 µg/mL, partner 0.001 µg/mL | 0.291
B. subtilis 168 [1], first compound 0.039 µg/mL, partner 0.0078 µg/mL | 0.0887
S. pneumoniae D39V [2], first compound 0.25 µg/mL, partner 0.2 µg/mL | 0.752
S. pneumoniae D39V [2], first compound 0.25 µg/mL, partner 0.4 µg/mL | 0.559
S. pneumoniae D39V [2], first compound 0.25 µg/mL, partner 0.8 µg/mL | 0.124

Settings | fitness
B. subtilis 168 [1], first compound 0.0098 µg/mL, partner 0.002 µg/mL | 0.855
B. subtilis 168 [1], first compound 0.0098 µg/mL, partner 0.0039 µg/mL | 0.873
B. subtilis 168 [1], first compound 0.0098 µg/mL, partner 0.0312 µg/mL | 0.0377
B. subtilis 168 [1], first compound 0.0098 µg/mL, partner 0.0625 µg/mL | 0.0424
B. subtilis 168 [1], first compound 0.0098 µg/mL, partner 0.125 µg/mL | 0.0385
B. subtilis 168 [1], first compound 0.0195 µg/mL, partner 0.002 µg/mL | 0.727
B. subtilis 168 [1], first compound 0.0195 µg/mL, partner 0.0039 µg/mL | 0.722
B. subtilis 168 [1], first compound 0.0195 µg/mL, partner 0.0312 µg/mL | 0.0376
B. subtilis 168 [1], first compound 0.0195 µg/mL, partner 0.0625 µg/mL | 0.0489
B. subtilis 168 [1], first compound 0.0195 µg/mL, partner 0.125 µg/mL | 0.0429
B. subtilis 168 [1], first compound 0.039 µg/mL, partner 0.002 µg/mL | 0.123
B. subtilis 168 [1], first compound 0.039 µg/mL, partner 0.0039 µg/mL | 0.145
B. subtilis 168 [1], first compound 0.039 µg/mL, partner 0.0312 µg/mL | 0.0451
B. subtilis 168 [1], first compound 0.039 µg/mL, partner 0.0625 µg/mL | 0.0495
B. subtilis 168 [1], first compound 0.039 µg/mL, partner 0.125 µg/mL | 0.0401
S. pneumoniae D39V [2], first compound 0.125 µg/mL, partner 0.1725 µg/mL | 0.884
S. pneumoniae D39V [2], first compound 0.125 µg/mL, partner 0.2 µg/mL | 0.883
S. pneumoniae D39V [2], first compound 0.125 µg/mL, partner 0.345 µg/mL | 0.794
S. pneumoniae D39V [2], first compound 0.125 µg/mL, partner 0.4 µg/mL | 0.735
S. pneumoniae D39V [2], first compound 0.125 µg/mL, partner 0.69 µg/mL | 0.498
S. pneumoniae D39V [2], first compound 0.125 µg/mL, partner 0.8 µg/mL | 0.201
S. pneumoniae D39V [2], first compound 0.25 µg/mL, partner 0.1725 µg/mL | 0.83
S. pneumoniae D39V [2], first compound 0.25 µg/mL, partner 0.345 µg/mL | 0.723
S. pneumoniae D39V [2], first compound 0.25 µg/mL, partner 0.69 µg/mL | 0.445
S. pneumoniae D39V [2], first compound 0.5 µg/mL, partner 0.1725 µg/mL | 0.592
S. pneumoniae D39V [2], first compound 0.5 µg/mL, partner 0.345 µg/mL | 0.462
S. pneumoniae D39V [2], first compound 0.5 µg/mL, partner 0.69 µg/mL | 0.282
S. pneumoniae D39V [2], first compound 0.5 µg/mL, partner 0.8 µg/mL | 0.145

Settings | Bliss interaction score
B. subtilis 168 [3] | -0.0411
S. aureus DSM 20231 | -0.147
S. aureus Newman | -0.194
S. pneumoniae D39V [4] | -0.166
